For assay [1], the system named is M. xanthus S motility. The experiment in a line: T4P-mediated social (S) motility, colony expansion on soft agar. Format: cell-based, Myxococcus xanthus. The settings on record: soft agar, strains YZ1674 (MxPilB) and YZ2232 (MC3PilB), 5 days, P < 0.05. From the text: Benserazide and levodopa were examined to determine whether they could impact the T4P assembly function of PilB in vivo using M. xanthus as the model bacterium ([28]). […] Three M. xanthus strains were used for these experiments. Strain DK10416 lacks S motility because it is a pilB deletion (ΔpilB) mutant ([40]). The other two strains both assemble T4P and are proficient in S motility ([30]). Strain YZ1674 produces the wild-type (WT) M. xanthus PilB (MxPilB). YZ2232 expresses MC3PilB, a PilB chimera with the N terminus of MxPilB fused to the C-terminal ATPase domain of CtPilB ([30]). The PilB ATPase domains of MxPilB and MC3PilB are highly similar, with 66% shared identity and 77% similarity (Fig. S1).
FIG 5 Benserazide and levodopa inhibit T4P-mediated social (S) motility in Myxococcus xanthus. Expansion rates (cm/day) of the MxPilB (YZ1674) and the MC3PilB (YZ2232) strains on soft agar plates by S motility in the presence of (A and C) benserazide and (B and D) levodopa after 5 days of incubation. Results from three independent experiments are shown, each performed in quintuplicates with data points represented by dots of the same color. Horizontal black lines represent overall averages. Expansion rates were normalized by subtracting that of the ΔpilB strain, which has no S motility (also see Fig. S4). Asterisks (*) indicate that the values at the indicated concentrations are statistically different (P < 0.05) from those of the no-inhibitor control.
(§1) M. xanthus was grown and maintained at 32°C in Casitone-yeast extract (CYE) medium ([49]). Motility assays were conducted with strains DK10416 (ΔpilB) ([40]), YZ1674 (ΔpilB att::MxpilB) ([50]), and YZ2232 (ΔpilB att::MC3pilB) ([30], [51]) as previously described ([28]). One modification was that 10% India ink was included in the cell suspension to mark the initial spot on agar plates. All experiments were conducted in quintuplicates and the diameter of the initial spot, as marked by India ink, was subtracted for data analysis.

The test system of assay [2] is M. xanthus pilin (PilA) production. The assay can be described thus: Pilin production, dot blot of whole cells with anti-PilA antibodies. Format: cell-based, Myxococcus xanthus. The settings on record: strain YZ603, whole cell dot blot. On the procedure: Fig. 6A and B show a representative of the data from three biological experiments, each conducted with 4 technical replicates (R1 to R4).
Piliation levels of the M. xanthus strain YZ603 (ΔdifE) ([52]) were analyzed by dot-blotting with anti-PilA antibodies as previously described ([28]). This study included a fraction representing the “Basal” T4P levels for a given treatment. […] These fractions were used as controls and subtracted as the baseline in data analysis.

Assay [3] deals with CtPilB (Chloracidobacterium thermophilum, UniProt G2LDI3). The assay can be described thus: MANT-ATP binding to CtPilB (fluorescence). The settings on record: for Ki: estimated by Cheng-Prusoff equation from MANT-ATP IC50, assuming competitive inhibition, read-out: Ki (inhibition constant); for IC50: fraction of MANT-ATP bound, fluorescence. On the procedure:
To probe the mechanisms of inhibition, we examined benserazide and levodopa for their effects on the binding of PilB to the fluorescent ATP analog MANT-ATP ([28]).
FIG 3 Benserazide and levodopa reduce MANT-ATP binding to CtPilB. Fluorescence was used to calculate the fraction of MANT-ATP bound to CtPilB. Experiments were performed in triplicates with samples containing constant concentrations of CtPilB and MANT-ATP with varying concentrations of (A) benserazide or (B) levodopa. The three different sets of colored dots represent averages from three independent experiments with error bars omitted for clarity. Best fits to isotherms with indicated IC50s are shown.
The effects of inhibitors on the ATPase activity of CtPilB and CtPilBΔN and the binding of MANT-ATP were determined as described previously ([28], [29]). Stock solutions were prepared by dissolving benserazide hydrochloride (Alfa Aesar) or levodopa (Spectrum Chemical Mfg. Corp.) in dimethyl sulfoxide (DMSO; Fisher Biotech). Next, 10× working stocks for given concentrations of an inhibitor were freshly prepared before their use in an experiment. GraphPad Prism v7.04 was used for curve fitting and Student’s t test was used for statistical analysis.

In assay [4] the test system is M. xanthus motility. The assay can be described thus: Colony expansion of S-motile strains on hard agar. It is filed as cell-based, Myxococcus xanthus. The settings on record: strains YZ1674 and YZ2232, P < 0.05.
From the text: On the other hand, YZ1674 and YZ2232, which have both A and S motility, were affected in their expansion on hard agar by both compounds (Fig. S4 and S5) at concentrations similar to those on soft agar. Indeed, the results with hard agar plates mirror those with soft agar. […] Because neither benserazide nor levodopa had any effect on A motility (Fig. S3C and D), the net differences on hard agar at different concentrations of the inhibitor (Fig. S4) can be viewed as confirmation of its effect on S motility (Fig. 5). […] It is plausible that this inhibition is attributable to their effects on the PilB ATPase in vivo.
as §1

Bounds are passed on as bounds.

CtPilB, sequence (G2LDI3 entry or part of it): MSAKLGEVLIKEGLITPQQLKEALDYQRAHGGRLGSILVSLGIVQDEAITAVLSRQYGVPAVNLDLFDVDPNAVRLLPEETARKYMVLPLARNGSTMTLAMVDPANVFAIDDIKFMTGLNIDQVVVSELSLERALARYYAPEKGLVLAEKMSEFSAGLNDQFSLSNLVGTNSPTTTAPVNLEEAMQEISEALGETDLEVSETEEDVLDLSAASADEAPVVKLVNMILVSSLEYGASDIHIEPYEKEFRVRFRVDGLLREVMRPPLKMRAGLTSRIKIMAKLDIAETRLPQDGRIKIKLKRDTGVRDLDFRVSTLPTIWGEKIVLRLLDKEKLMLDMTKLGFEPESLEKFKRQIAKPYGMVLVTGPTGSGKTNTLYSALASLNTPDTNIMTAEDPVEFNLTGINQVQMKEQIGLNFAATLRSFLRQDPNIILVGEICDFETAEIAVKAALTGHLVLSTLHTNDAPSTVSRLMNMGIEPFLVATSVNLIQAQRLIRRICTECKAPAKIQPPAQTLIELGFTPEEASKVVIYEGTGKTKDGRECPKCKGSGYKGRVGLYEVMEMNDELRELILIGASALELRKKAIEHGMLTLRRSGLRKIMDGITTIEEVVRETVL

As to `NC(CO)C(=O)NNCc1ccc(O)c(O)c1O` (stereo not shown) [benserazide], the “concentration giving significant inhibition of S motility” value in assay [1] was ≥ 8 µM. Also, the “effect on pilin production level” value in assay [2] is “neither compound had any detectable effect”. Moreover, in assay [3], the Ki is 2.27 µM and the IC50 worked out at 33.6 ± 0.5 µM. Besides, the “concentration giving statistically significant reduction of expansion on hard agar” value in assay [4] was ≥ 8 µM.
On to `N[C@@H](Cc1ccc(O)c(O)c1)C(=O)O` [levodopa, 3,4-dihydroxyphenylalanine], for which, in assay [1], the “concentration giving significant inhibition of S motility” value was ≥ 32 µM. Further, in assay [2], the “effect on pilin production level” value is given as “neither compound had any detectable effect”. In assay [3], the Ki was 3.4 µM and the IC50 was determined as 50.5 ± 9.2 µM. Moreover, in assay [4], the “concentration giving statistically significant reduction of expansion on hard agar” value is ≥ 32 µM.

Source of the values: PMC9769694, “Discovery of Two Inhibitors of the Type IV Pilus Assembly ATPase PilB as Potential Antivirulence Compounds” (Microbiology Spectrum, 2022).
